Consider twelve compounds from patent US20130137865A1 (TAISHO PHARMACEUTICAL CO., LTD., priority 2010, published 2013).

The assay deals with T1, human mGlu2 receptor (Homo sapiens, UniProt Q14416).
T1 construct: expressed in transfected cells; host or cells: CHO cells
In words: [35S]GTPγS binding test (2), membranes of CHO cells stably expressing human mGlu2. Format: biochemical. The settings on record: inhibition of glutamic acid (20 μM)-stimulated specific [35S]GTPγS binding. The protocol:
(Preparation of Crude Membrane Fraction of CHO Cells Stably Expressing the Human Metabotropic Glutamate Receptor (mGlu2))
CHO cells stably expressing the human mGlu2 receptor were cultured in a 10% dialyzed fetal bovine serum-containing Dulbecco's Modified Eagle's Medium [1% proline, 50 units/mL penicillin, 50 μg/mL streptomycin, 400 μg/mL hygromycin B, and 2 mM L-glutamine (to be added when used)] at 37° C. in 5% CO2. Confluent cells were washed with PBS(−) twice, and were then harvested with a cell scraper. Then, the cells were centrifuged at 4° C. at 1000 rpm for 5 minutes to collect. The obtained precipitate was suspended in a 20 mM HEPES buffer (pH 7.4), and then homogenized with a Teflon® homogenizer. The resultant was centrifuged at 4° C. at 48,000×g for 20 minutes to obtain a precipitate again. The obtained precipitate was washed twice by centrifugation, and was then homogenized with the above-mentioned buffer, so as to obtain a crude membrane fraction. The obtained crude membrane fraction was preserved at −80° C.
The frozen membrane fraction as prepared above was thawed when used, and it was then diluted with a binding test buffer (final concentration: 20 mM HEPES, 100 mM NaCl, 10 mM MgCl2, 8.4 μM GDP, 10 μg/mL saponin, and 0.1% BSA). The compound of the Example was added to a membrane fraction (10 μg protein/assay), and the obtained mixture was then incubated at 30° C. for 20 minutes. Thereafter, glutamic acid (final concentration: 20 μM) and [^35S]GTPγS (final concentration: 0.15 nM) were added to the reaction mixture, and then incubated at 30° C. for 1 hour. After completion of the incubation, the reaction mixture was subjected to filtration over a Whatman GF/C filter that had previously been immersed in a 20 mM HEPES buffer (pH 7.4), and the filter was then washed three times with 300 μL of ice-cold 20 mM HEPES buffer (pH 7.4). A scintillation cocktail was added to the resulting filter, and membrane-bound radioactivity was then measured with a liquid scintillation counter.
The amount of [^35S]GTPγS bound in the case of carrying out the above described reaction in the absence of glutamic acid was defined as non-specific binding. The difference between such non-specific bound and the amount of [^35S]GTPγS bound in the presence of glutamic acid was defined as specific binding. Using non-linear analysis, a concentration-inhibition curve was produced. The concentration of the compound of each Example that caused 50% inhibition (IC50 value) of specific binding was determined from each concentration-inhibition curve.

T1 sequence (Q14416 19-872): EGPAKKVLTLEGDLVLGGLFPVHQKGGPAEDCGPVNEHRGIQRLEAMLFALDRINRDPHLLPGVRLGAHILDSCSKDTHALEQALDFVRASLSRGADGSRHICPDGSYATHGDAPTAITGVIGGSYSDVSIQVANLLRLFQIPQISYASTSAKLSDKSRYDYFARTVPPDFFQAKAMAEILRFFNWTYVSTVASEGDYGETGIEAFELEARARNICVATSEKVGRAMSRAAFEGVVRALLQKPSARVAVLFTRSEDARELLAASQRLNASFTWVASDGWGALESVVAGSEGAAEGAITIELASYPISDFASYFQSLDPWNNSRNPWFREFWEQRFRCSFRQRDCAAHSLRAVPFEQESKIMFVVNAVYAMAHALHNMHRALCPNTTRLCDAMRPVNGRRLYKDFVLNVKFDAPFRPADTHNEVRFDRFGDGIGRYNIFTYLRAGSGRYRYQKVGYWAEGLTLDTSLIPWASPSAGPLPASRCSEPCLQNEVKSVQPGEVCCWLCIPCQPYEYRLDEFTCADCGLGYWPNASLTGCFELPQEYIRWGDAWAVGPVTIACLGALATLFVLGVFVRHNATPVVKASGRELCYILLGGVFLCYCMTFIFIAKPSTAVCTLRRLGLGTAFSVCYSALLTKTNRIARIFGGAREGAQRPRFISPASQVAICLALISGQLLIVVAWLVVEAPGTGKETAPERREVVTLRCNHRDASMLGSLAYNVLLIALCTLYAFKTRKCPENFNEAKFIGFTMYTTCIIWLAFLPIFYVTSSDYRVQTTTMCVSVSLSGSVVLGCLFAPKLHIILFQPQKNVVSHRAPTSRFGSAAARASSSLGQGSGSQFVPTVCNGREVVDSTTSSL

For `Cn1ncc(-c2nc(-c3cncc(S(N)(=O)=O)c3)no2)c1COc1ccc(C(F)(F)F)cn1` [Example 224, 5-{5-[1-Methyl-5-({[5-(trifluoromethyl)pyridin-2-yl]oxy}methyl)-1H-pyrazol-4-yl]-1,2,4-oxadiazol-3-yl}pyridine-3-sulfonamide], the IC50 is 3.64 nM. For the compound `Cn1ncc(-c2nnc(-c3ccc(S(N)(=O)=O)cc3)o2)c1COc1ccc(C(F)(F)F)cc1` [Example 190, 4-[5-(1-Methyl-5-{[4-(trifluoromethyl)phenoxy]methyl}-1H-pyrazol-4-yl)-1,3,4-oxadiazol-2-yl]benzenesulfonamide], the IC50 was found to be 67.2 nM. Under `Cn1nc(-c2cccc(S(N)(=O)=O)c2)nc1-c1cnn(C)c1COc1ccc(C(F)(F)F)cc1` [Example 233, 3-[1-Methyl-5-(1-methyl-5-{[4-(trifluoromethyl)phenoxy]methyl}-1H-pyrazol-4-yl)-1H-1,2,4-triazol-3-yl]benzenesulfonamide] stands 80.6 nM; under `Cn1ncc(-c2nc(-c3cccc(N)c3)no2)c1COc1ccc(C(F)(F)F)cn1` [Example 220, 3-{5-[1-Methyl-5-({[5-(trifluoromethyl)pyridin-2-yl]oxy}methyl)-1H-pyrazol-4-yl]-1,2,4-oxadiazol-3-yl}aniline], 32.2 nM. Under `Cn1ncc(-c2nc(-c3cc[nH]c(=O)c3)no2)c1COc1ccc(C(F)(F)F)cn1` [Example 228, 4-{5-[1-Methyl-5-({[5-(trifluoromethyl)pyridin-2-yl]oxy}methyl)-1H-pyrazol-4-yl]-1,2,4-oxadiazol-3-yl}pyridine-2(1H)-one] stands 56.9 nM. Under `Cn1ncc(-c2nc(-c3cccc(S(N)(=O)=O)c3)no2)c1COc1ccc(F)cn1` [Example 72, 3-[5-(5-{[(5-Fluoropyridin-2-yl)oxy]methyl}-1-methyl-1H-pyrazol-4-yl)-1,2,4-oxadiazol-3-yl]benzenesulfonamide] stands 10.3 nM; under `Cn1ncc(-c2coc(-c3cccc(S(N)(=O)=O)c3)n2)c1COc1ccc(C(F)(F)F)cc1` [Example 203, 3-[4-(1-Methyl-5-{[4-(trifluoromethyl)phenoxy]methyl}-1H-pyrazol-4-yl)-1,3-oxazol-2-yl]benzenesulfonamide], 3.85 nM.

On to `Cn1ncc(-c2nc(-c3cccc(S(C)(=O)=O)c3)no2)c1COc1ccc(C(F)(F)F)cn1` [Example 216, 2-[(1-Methyl-4-{3-[3-(methylsulfonyl)phenyl]-1,2,4-oxadiazol-5-yl}-1H-pyrazol-5-yl)methoxy]-5-(trifluoromethyl)pyridine], for which the IC50 turned out to be 4.32 nM. Regarding `Cn1ncc(-c2cc(-c3cccc(S(N)(=O)=O)c3)on2)c1COc1ccc(F)cn1` [Example 204, 3-[3-(5-{[(5-Fluoropyridin-2-yl)oxy]methyl}-1-methyl-1H-pyrazol-4-yl)-1,2-oxazol-5-yl]benzenesulfonamide], the IC50 stood at 50.8 nM. The result for `Cn1ncc(-c2nc(-c3ccc(S(C)(=O)=O)cc3)no2)c1COc1ccc(C(F)(F)F)cn1` [Example 215, 2-[(1-Methyl-4-{3-[4-(methylsulfonyl)phenyl]-1,2,4-oxadiazol-5-yl}-1H-pyrazol-5-yl)methoxy]-5-(trifluoromethyl)pyridine] reads 49.1 nM; that for `Cn1ncc(-c2nc(-c3cccc(S(N)(=O)=O)c3)no2)c1COc1ccccn1` [Example 75, 3-(5-{1-Methyl-5-[(pyridin-2-yloxy)methyl]-1H-pyrazol-4-yl}-1,2,4-oxadiazole-3-yl)benzenesulfonamide], 36.7 nM. Under `CC(=O)Nc1cc(-c2noc(-c3cnn(C)c3COc3ccc(C(F)(F)F)cc3)n2)ccn1` [Example 208, N-{4-[5-(1-methyl-5-{[4-(trifluoromethyl)phenoxy]methyl}-1H-pyrazol-4-yl)-1,2,4-oxadiazol-3-yl]pyridin-2-yl}acetamide] stands 29.1 nM.
